Results published in article PMC9250534, “Synthesis and direct assay of large macrocycle diversities by combinatorial late-stage modification at picomole scale” (Nature Communications, 2022).

target: MDM2 (Homo sapiens, UniProt Q00987); assay: MDM2 binding screen of Libraries 3 and 4: displacement of fluorescent probe F-M8 at 750 nM macrocycle; settings: 750 nM macrocycle; crude reaction; probe F-M8
Procedure: The cyclic peptide scaffolds required for Libraries 3 and 4 were synthesized as described for those used in Library 2. Due to the presence of many N-methylated amino acids which are more difficult to couple, 200 mM HOAt was applied together with HATU. The scaffolds were diluted to 2 mM in DMSO, and 15 nL were transferred using acoustic dispensing, followed by 15 nL DMSO containing carboxylic acids (40 mM, 20 equiv.), HBTU (40 mM) and DABCO (40 mM). After 6 h reaction at room temperature, 370 nL of DMSO was added to each well, followed by 5 μL of 100 mM Tris-Cl pH 7.4 containing 0.01% v/v Tween20, for quenching overnight.

Chain of MDM2 (Q00987 whole entry): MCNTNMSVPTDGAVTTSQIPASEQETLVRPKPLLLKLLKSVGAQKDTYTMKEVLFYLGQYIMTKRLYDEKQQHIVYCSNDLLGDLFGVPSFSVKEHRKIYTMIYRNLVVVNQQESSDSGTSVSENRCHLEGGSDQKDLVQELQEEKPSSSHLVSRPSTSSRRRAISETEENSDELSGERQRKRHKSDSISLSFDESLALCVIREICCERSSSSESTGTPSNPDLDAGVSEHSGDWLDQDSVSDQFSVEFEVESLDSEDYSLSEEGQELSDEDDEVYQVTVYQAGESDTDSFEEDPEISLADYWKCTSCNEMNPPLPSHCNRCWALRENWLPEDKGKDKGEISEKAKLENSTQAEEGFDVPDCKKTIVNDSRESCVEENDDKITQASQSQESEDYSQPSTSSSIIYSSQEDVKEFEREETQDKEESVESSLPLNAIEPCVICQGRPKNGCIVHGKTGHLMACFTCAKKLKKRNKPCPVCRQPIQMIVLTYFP

In the case of COc1ccc(/C=C/C(=O)NC[C@@H]2NC(=O)[C@H]3CCCN(C3)C(=O)CCSSCCNC(=O)[C@H](Cc3c[nH]c4ccccc34)NC2=O)cc1 [M9], the “displacement of fluorescent probe from MDM2” value is reported as 68%.

same assay, conditions: Panel b, Library 3: 63 scaffolds combinatorially acylated with 15 carboxylic acids at 30 picomole scale; displacement of fluorescent peptide probe; macrocycle 750 nM

First: O=C(NC[C@@H]1NC(=O)[C@H]2CCCN(C2)C(=O)CCSSCCNC(=O)[C@H](Cc2ccc3ccccc3c2)NC1=O)c1ccc(Cl)s1 [X-Nip-Dap-2-Nal + Acid 14]
Second: O=C(NC[C@@H]1NC(=O)[C@H]2CCCN(C2)C(=O)CCSSCCNC(=O)[C@H](Cc2cccc3ccccc23)NC1=O)c1ccc(Cl)s1 [X-Nip-Dap-1-NaI + Acid 14]
The “fraction of fluorescent probe displaced” value of the first is lower: 0.015 for the first, 0.028 for the second.

O=C1CCSSCCNC(=O)[C@H](Cc2ccc3ccccc3c2)NC(=O)CN(CCNC(=O)c2ccc3ccccc3c2)C(=O)C2(CC2)CN1 [X-Amcp-N-Aeg-2-Nal + Acid 107] and O=C1CCSSCCNC(=O)[C@H](Cc2c[nH]c3ccccc23)NC(=O)CN(CCNC(=O)c2ccc3ccccc3c2)C(=O)C2(CC2)CN1 [X-Amcp-N-Aeg-Trp + Acid 107] are the same in “fraction of fluorescent probe displaced” value: 0.018 for the first, 0.018 for the second.

First: Cn1cc(C[C@@H]2NC(=O)CN(CCNC(=O)/C=C/c3ccc4ccccc4c3)C(=O)C3(CC3)CNC(=O)CCSSCCNC2=O)c2ccccc21 [X-Amcp-N-Aeg-Me-Trp + Acid 112]
Second: O=C(/C=C/c1ccc2ccccc2c1)NCCN1CC(=O)N[C@H](Cc2c[nH]c3ccccc23)C(=O)NCCSSCCC(=O)NCC2(CC2)C1=O [X-Amcp-N-Aeg-D-Trp + Acid 112]
The “fraction of fluorescent probe displaced” value of the first is higher: 0.028 for the first, 0.008 for the second.

Cn1cc(C[C@@H]2NC(=O)[C@H](CNC(=O)/C=C/c3ccc(OCc4ccccc4)cc3)NC(=O)C3(CC3)CNC(=O)CCSSCCNC2=O)c2ccccc21 [X-Amcp-Dap-Me-Trp + Acid 110] and Cn1cc(C[C@@H]2NC(=O)[C@@H](CNC(=O)/C=C/c3ccc(Cl)cc3)NC(=O)C3(CC3)CNC(=O)CCSSCCNC2=O)c2ccccc21 [X-Amcp-D-Dap-Me-Trp + Acid 108] are the same in “fraction of fluorescent probe displaced” value: 0.008 for the first, 0.008 for the second.

First: Cn1cc(C[C@@H]2NC(=O)[C@@H](CNC(=O)CCS(=O)(=O)c3ccccc3)NC(=O)[C@H]3CCCN(C3)C(=O)CCSSCCNC2=O)c2ccccc21 [X-Nip-D-Dap-Me-Trp + Acid 114]
Second: O=C(CCS(=O)(=O)c1ccccc1)NC[C@@H]1NC(=O)[C@H]2CCCN(C2)C(=O)CCSSCCNC(=O)[C@H](Cc2c[nH]c3ccccc23)NC1=O [X-Nip-Dap-Trp + Acid 114]
The “fraction of fluorescent probe displaced” value of the first is higher: 0.015 for the first, -0.012 for the second.

Going from O=C1CCSSCCNC(=O)[C@H](Cc2c[nH]c3cc(Cl)ccc23)NC(=O)[C@H](CNC(=O)c2cccc(Oc3ccccc3)c2)NC(=O)C2(CC2)CN1 [X-Amcp-Dap-Cl-Trp + Acid 111] to O=C(/C=C/c1ccc2ccccc2c1)NC[C@H]1NC(=O)C2(CC2)CNC(=O)CCSSCCNC(=O)[C@H](Cc2c[nH]c3cc(Cl)ccc23)NC1=O [X-Amcp-D-Dap-Cl-Trp + Acid 112], the “fraction of fluorescent probe displaced” value falls from 0.008 to -0.00533.

First: CN1C(=O)[C@H](CNC(=O)/C=C/c2ccc(OCc3ccccc3)cc2)NC(=O)[C@H]2CCCN(C2)C(=O)CCSSCCNC(=O)[C@@H]1Cc1c[nH]c2ccccc12 [X-Nip-Dap-NMe-Trp + Acid 110]
Second: CN1C(=O)[C@H](CNC(=O)/C=C/c2ccc(Cl)cc2)NC(=O)[C@H]2CCCN(C2)C(=O)CCSSCCNC(=O)[C@@H]1Cc1c[nH]c2ccccc12 [X-Nip-Dap-NMe-Trp + Acid 108]
The “fraction of fluorescent probe displaced” value of the first is higher: 0.015 for the first, 0.00133 for the second.

Compared with CC(Oc1cccc(Cl)c1)C(=O)NCCN1CC(=O)N[C@@H](Cc2cccc3ccccc23)C(=O)NCCSSCCC(=O)NCC2(CC2)C1=O (some centres unmarked) [X-Amcp-N-Aeg-1-NaI + Acid 113], CC(Oc1cccc(Cl)c1)C(=O)NC[C@@H]1NC(=O)C2(CC2)CNC(=O)CCSSCCNC(=O)[C@H](Cc2cccc3ccccc23)NC1=O (some centres unmarked) [X-Amcp-Dap-1-NaI + Acid 113] is lower in “fraction of fluorescent probe displaced” value: 0.028 for the first, -0.012 for the second.

Going from O=C(NC[C@H]1NC(=O)[C@H]2CCCN(C2)C(=O)CCSSCCNC(=O)[C@H](Cc2c[nH]c3ccccc23)NC1=O)c1cccc(Oc2ccccc2)c1 [X-Nip-D-Dap-Trp + Acid 111] to Cn1cc(C[C@@H]2NC(=O)[C@@H](CNC(=O)c3cccc(Oc4ccccc4)c3)NC(=O)[C@H]3CCCN(C3)C(=O)CCSSCCNC2=O)c2ccccc21 [X-Nip-D-Dap-Me-Trp + Acid 111], the “fraction of fluorescent probe displaced” value rises from 0.008 to 0.048.

Going from O=C(/C=C/c1ccc(OCc2ccccc2)cc1)NC[C@H]1NC(=O)[C@@H]2CN(CCO2)C(=O)CCSSCCNC(=O)[C@H](Cc2cccc3ccccc23)NC1=O [X-Cop-D-Dap-1-NaI + Acid 110] to O=C(/C=C/c1ccc(Cl)cc1)NC[C@H]1NC(=O)[C@@H]2CN(CCO2)C(=O)CCSSCCNC(=O)[C@H](Cc2cccc3ccccc23)NC1=O [X-Cop-D-Dap-1-NaI + Acid 108], the “fraction of fluorescent probe displaced” value falls from 0.048 to 0.028.

Going from O=C(/C=C/c1ccc2ccccc2c1)NCCN1CC(=O)N[C@H](Cc2c[nH]c3ccccc23)C(=O)NCCSSCCC(=O)N2CCC[C@@H](C2)C1=O [X-Nip-N-Aeg-D-Trp + Acid 112] to O=C(/C=C/c1ccc2ccccc2c1)NC[C@H]1NC(=O)[C@H]2CCCN(C2)C(=O)CCSSCCNC(=O)[C@@H](Cc2c[nH]c3ccccc23)NC1=O [X-Nip-D-Dap-D-Trp + Acid 112], the “fraction of fluorescent probe displaced” value rises from 0.055 to 0.075.

Compared with O=C(CCS(=O)(=O)c1ccccc1)NC[C@@H]1NC(=O)C2(CC2)CNC(=O)CCSSCCNC(=O)[C@H](Cc2c[nH]c3ccccc23)NC1=O [X-Amcp-Dap-Trp + Acid 114], O=C(CCS(=O)(=O)c1ccccc1)NC[C@H]1NC(=O)[C@@H]2CN(CCO2)C(=O)CCSSCCNC(=O)[C@H](Cc2cccc3ccccc23)NC1=O [X-Cop-D-Dap-1-NaI + Acid 114] is higher in “fraction of fluorescent probe displaced” value: -0.00533 for the first, 0.008 for the second.

First: CN1C(=O)C(CNC(=O)c2ccc3ccccc3c2)NC(=O)C2CN(CCO2)C(=O)CCSSCCNC(=O)C1Cc1c[nH]c2ccccc12 (stereo not drawn) [X-Cop-Dap-NMe-Trp + Acid 107]
Second: O=C(NC[C@@H]1NC(=O)[C@@H]2CN(CCO2)C(=O)CCSSCCNC(=O)[C@H](Cc2c[nH]c3cc(Cl)ccc23)NC1=O)c1ccc2ccccc2c1 [X-Cop-Dap-Cl-Trp + Acid 107]
The “fraction of fluorescent probe displaced” value of the first is lower: 0.011 for the first, 0.102 for the second.

Going from O=C1CCSSCCNC(=O)[C@H](Cc2ccc3ccccc3c2)NC(=O)[C@@H](CNC(=O)c2ccc(Cl)s2)NC(=O)C2(CC2)CN1 [X-Amcp-D-Dap-2-Nal + Acid 14] to CC(Oc1cccc(Cl)c1)C(=O)NCC1NC(=O)C2(CC2)CNC(=O)CCSSCCNC(=O)C(Cc2ccc3ccccc3c2)NC1=O (mixture of isomers) [X-Amcp-D-Dap-2-Nal + Acid 113], the “fraction of fluorescent probe displaced” value falls from 0.00133 to -0.00533.

Going from O=C(NC[C@H]1NC(=O)[C@H]2CCCN(C2)C(=O)CCSSCCNC(=O)[C@H](Cc2cccc3ccccc23)NC1=O)c1ccc2ccccc2c1 [X-Nip-D-Dap-1-NaI + Acid 107] to O=C(NC[C@@H]1NC(=O)[C@H]2CCCN(C2)C(=O)CCSSCCNC(=O)[C@@H](Cc2c[nH]c3ccccc23)NC1=O)c1ccc(Cl)cc1 [X-Nip-Dap-D-Trp + Acid 25], the “fraction of fluorescent probe displaced” value falls from 0.00455 to -0.045.

Compared with O=C(O)/C=C/c1ccncc1 [Acid 106], CC(Oc1cccc(Cl)c1)C(=O)O (centres unmarked) [Acid 113] is lower in “fraction of fluorescent probe displaced” value: 0.00455 for the first, -0.00533 for the second.

Going from O=C(/C=C/c1ccc(Cl)cc1)NCCN1CC(=O)N[C@@H](Cc2cccc3ccccc23)C(=O)NCCSSCCC(=O)NCC2(CC2)C1=O [X-Amcp-N-Aeg-1-NaI + Acid 108] to Cn1cc(C[C@@H]2NC(=O)CN(CCNC(=O)c3ccc(Cl)s3)C(=O)C3(CC3)CNC(=O)CCSSCCNC2=O)c2ccccc21 [X-Amcp-N-Aeg-Me-Trp + Acid 14], the “fraction of fluorescent probe displaced” value falls from 0.035 to -0.00533.

Compared with CN1C(=O)[C@@H](CNC(=O)/C=C/c2ccncc2)NC(=O)[C@H]2CCCN(C2)C(=O)CCSSCCNC(=O)[C@@H]1Cc1c[nH]c2ccccc12 [X-Nip-D-Dap-NMe-Trp + Acid 106], O=C(/C=C/c1ccc(Cl)cc1)NC[C@@H]1NC(=O)[C@H]2CCCN(C2)C(=O)CCSSCCNC(=O)[C@H](Cc2c[nH]c3ccccc23)NC1=O [X-Nip-Dap-Trp + Acid 108] is higher in “fraction of fluorescent probe displaced” value: -0.00844 for the first, 0.421 for the second.

Compared with O=C1CN(CCNC(=O)c2ccc(Cl)cc2)C(=O)C2CN(CCO2)C(=O)CCSSCCNC(=O)C(Cc2c[nH]c3ccccc23)N1 (centres unmarked) [X-Cop-N-Aeg-Trp + Acid 25], O=C1CN(CCNC(=O)C2COc3ccccc3O2)C(=O)[C@@H]2CN(CCO2)C(=O)CCSSCCNC(=O)[C@H](Cc2c[nH]c3cc(Cl)ccc23)N1 (some centres unmarked) [X-Cop-N-Aeg-Cl-Trp + Acid 115] is lower in “fraction of fluorescent probe displaced” value: 0.055 for the first, 0.021 for the second.

First: CC(Oc1cccc(Cl)c1)C(=O)NCC1NC(=O)C2CCCN(C2)C(=O)CCSSCCNC(=O)C(Cc2ccc3ccccc3c2)NC1=O (mixture of isomers) [X-Nip-D-Dap-2-Nal + Acid 113]
Second: O=C1CCSSCCNC(=O)[C@H](Cc2ccc3ccccc3c2)NC(=O)[C@@H](CNC(=O)C2COc3ccccc3O2)NC(=O)C2(CC2)CN1 (stereo partly drawn) [X-Amcp-D-Dap-2-Nal + Acid 115]
The “fraction of fluorescent probe displaced” value of the first is lower: -0.012 for the first, 0.015 for the second.

same assay, conditions: Panel c, Library 4: best nine scaffolds and 15 additional carboxylic acids; displacement of fluorescent probe

Compared with CCCOc1ccc(/C=C/C(=O)O)cc1 [Acid 118], CC(C)c1ccc(/C=C/C(=O)O)cc1 [Acid 127] is lower in “fraction of fluorescent probe displaced” value: 0.028 for the first, -0.021 for the second.

O=C(/C=C/c1cccc(C(F)(F)F)c1)NC[C@@H]1NC(=O)[C@H]2CCCN(C2)C(=O)CCSSCCNC(=O)[C@H](Cc2ccc3ccccc3c2)NC1=O [X-Nip-Dap-2-Nal + Acid 122] was tested, and the “fraction of fluorescent probe displaced” value was 0.012.
